In patent publication US4657897A, “N^6 -substituted adenosines for treating pain” (Warner-Lambert Company, priority 1985, dated 1987):
Like-named read-outs stand apart in the source and are kept apart here.

Key:
[1] = target: T1, adenosine A2 receptor (Rattus norvegicus, UniProt P30543); assay: Adenosine Receptor Binding--A2 Receptor Affinity (RBA2), [3H]NECA binding, rat striatal membranes; set-up: species or system rat (mixed sex Sprague-Dawley; male Long-Evans); settings: 4 nM [3H]NECA, 50 nM N6-cyclopentyladenosine, 25° C., 60 min
T1 construct: 5 mg original tissue weight of rat weight of rat striatal membranes; tissue Pel-Freez (Rogers, Ark.) for the brains; host or cells: rat striatum (Sprague-Dawley; Long-Evans gave essentially identical results), membranes
Description: Adenosine Receptor Binding--A2 Receptor Affinity (RBA2)
Brains from 200-500 g mixed sex Sprague-Dawley rats were purchased from Pel-Freez (Rogers, Ark.). […] Brains were thawed and then kept on ice while the striata were dissected out. Striata were disrupted in 10 vol of ice-cold 50 mM Tris.HCl (pH 7.7 at 25° C., pH 8.26 at 5° C.) (Tris) for 30 seconds in a Polytron PT-10 (Brinkmann) at setting 5. The suspension was centrifuged at 50,000 xg for ten minutes, the supernatant discarded, the pellet resuspended in 10 vol ice-cold Tris as above, recentrifuged, resuspended at 1 g/5 ml, and stored in plastic vials at -70° C. […] When needed, tissue was thawed at room temperature, disrupted in a Polytron, and kept on ice until used.
Test compounds were dissolved at 10 mM in dimethylsulfoxide on the same day as the experiment, and diluted in dimethylsulfoxide to 100× the final incubation concentration. […] [^3 H]NECA was diluted to 40 nM in Tris. […] After all additions, the rack of tubes was vortexed, and the tubes were then incubated for 60 min at 25° C. in a shaking water bath. The rack of tubes was vortexed an additional time halfway through the incubation.
Incubations were terminated by filtration through 2.4 cm GF/B filters under reduced pressure. Each tube was filtered as follows: the contents of the tube were poured onto the filter, 4 ml of ice-cold Tris were added to the tube and the contents poured onto the filter, and the filter was washed twice with 4 ml of ice-cold Tris. The filtration was complete in about twelve seconds. Filters were put in scintillation vials, 8 ml of Formula 947 scintillation fluid added, and the vials left overnight, shaken, and counted in a liquid scintillation counter at 40% efficiency.
The IC50 was calculated by weighted nonlinear least squares curve-fitting to the mass-action equation. [formula] where Y is cpm bound
T is cpm total binding without drug
S is cpm specific binding without drug
D is the concentration of drug
K is the IC50 of the drug
Weighting factors were calculated under the assumption that the standard deviation was proportional to the predicted value of Y. Nonspecific binding was treated as a very large (infinite) concentration of drug in the computer analysis.

[2] = target: T2, adenosine A1 receptor (Rattus norvegicus, UniProt P25099); assay: Adenosine Receptor Binding--A1 Receptor Affinity (RBA1), [3H]-CHA binding, rat whole brain membranes; set-up: species or system rat (male Long Evans); settings: 1.0 nM [3H]-CHA, 25° C., 1 h
T2 construct: Whole brain minus cerebellum and brainstem from male Long Evans rats; from tissue; host or cells: rat whole brain minus cerebellum and brainstem (male Long Evans), membranes
T2 sequence (P25099 1-326): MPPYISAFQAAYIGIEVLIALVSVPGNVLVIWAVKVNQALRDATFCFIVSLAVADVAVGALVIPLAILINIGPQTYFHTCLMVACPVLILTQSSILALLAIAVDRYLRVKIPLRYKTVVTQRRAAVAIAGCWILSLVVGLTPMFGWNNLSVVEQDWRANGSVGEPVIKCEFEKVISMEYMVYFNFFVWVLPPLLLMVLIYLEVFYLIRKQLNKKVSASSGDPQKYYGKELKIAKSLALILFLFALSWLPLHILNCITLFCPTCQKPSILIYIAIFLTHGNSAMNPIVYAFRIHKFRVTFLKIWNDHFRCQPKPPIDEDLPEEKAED
Description: Adenosine Receptor Binding--A1 Receptor Affinity (RBA1)
Whole brain minus cerebellum and brainstem from male Long Evans rats (150-200 g) was homogenized in 30 volumes of ice-cold 0.05M Tris-HCl buffer pH 7.7 using a Brinkman Polytron PT-10, (setting number 6 for 20 seconds) and centrifuged for ten minutes at 20,000×g (Sorvall RC-2), 4° C. The supernatant was discarded, and the pellet was resuspended and centrifuged as before. The pellet was resuspended in 20 ml Tris-HCl buffer containing two International Units/ml of adenosine deaminase (Sigma type III from calf intestinal mucosa), incubated at 37° C. for 30 minutes, then subsequently at 0° C. for ten minutes. The homogenate was again centrifuged, and the final pellet was resuspended in ice-cold 0.05M Tris-HCl buffer pH 7.7 to a concentration of 20 mg/ml original wet tissue weight and used immediately.
Tissue homogenate (10 mg/ml) was incubated in 0.05M Tris-HCl buffer pH 7.7 containing 1.0 nM [^3 H]-N^6 -cyclohexyladenosine[^3 H]-CHA) with or without test agents in triplicate for one hour at 25° C. Incubation volume was 2 ml. Unbound [^3 H]-CHA was separated by rapid filtration under reduced pressure through Whatman glass fiber (GF/B) filters. The filters were rinsed three times with 5 ml of ice cold 0.05M Tris-HCl buffer pH 7.7. The radio-labeled ligand retained on the filter was measured by liquid scintillation spectrophotometry after shaking the filters for one hour or longer on a mechanical shaker in 10 ml of Beckman Ready-Solv HP scintillation cocktail.
Nonspecific binding was defined as the binding which occurred in the presence of 1 mM theophylline. The concentration of test agent which inhibited 50% of the specific binding (IC50) was determined by nonlinear computer curve fit. The Scatchard plot was calculated by linear regression of the line obtained by plotting the amount of radioligand bound (pmoles/gram of tissue) [formula] Since the amount of radioligand bound was a small fraction of the total amount added, free radioligand was defined as the concentration (nM) of radioligand added to the incubation mixture. The Hill coefficient was calculated by linear regression of the line obtained by plotting the log of the bound radioligand vs the log of the [formula] The maximal number of binding sites (Bmax) was calculated from the Scatchard plot.

[3] = Mouse Activity and Screen Test (MAST), screen test failure (ST); assay type: in vivo, mouse (Swiss-Webster, male); settings: for Inhibition of screen test failure: percent of mice falling off the screen; for minimal effective dose: Mus musculus, ip, read-out: MAST ST LAD
Description: Treatments are administered intraperitoneally one hour prior to testing. […] Compounds are dissolved or suspended in 0.2% Methocel. Control animals are injected with Methocel.
The compounds are identified in the Examples.

[4] = lowest dose at which an A rating is achieved, screen test, intraperitoneal, 1 h prior to testing

T1 sequence (P30543 whole entry): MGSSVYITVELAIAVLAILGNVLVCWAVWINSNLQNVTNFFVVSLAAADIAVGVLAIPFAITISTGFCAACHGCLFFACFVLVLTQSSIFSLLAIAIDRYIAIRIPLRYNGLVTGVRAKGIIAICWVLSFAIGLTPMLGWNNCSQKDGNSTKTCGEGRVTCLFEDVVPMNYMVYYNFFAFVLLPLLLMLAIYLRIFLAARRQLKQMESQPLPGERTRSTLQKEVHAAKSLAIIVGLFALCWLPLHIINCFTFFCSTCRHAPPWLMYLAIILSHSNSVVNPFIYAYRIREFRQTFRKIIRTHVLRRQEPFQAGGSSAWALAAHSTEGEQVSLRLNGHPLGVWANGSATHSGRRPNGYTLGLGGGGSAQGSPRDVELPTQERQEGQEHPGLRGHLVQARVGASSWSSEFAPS

SMILES	IC50 [1]	IC50 [2]	Inhibition of screen test failure ([3]; 10 mg/kg intraperitoneal)	Inhibition of screen test failure ([3]; 30 mg/kg intraperitoneal)	Inhibition of screen test failure ([3]; 100 mg/kg intraperitoneal)	minimal effective dose [3, 4]	minimal effective dose ([3]; 1 h)
OC[C@H]1O[C@@H](n2cnc3c(NCC(c4ccccc4)c4ccccc4)nc(Cl)nc32)[C@H](O)[C@@H]1O [Example 3, N^6-(2,2-Diphenylethyl)-2-chloroadenosine]	139 nM	67 nM	0%	11%	44%	> 100 mg/kg	–
Nc1nc(NCC(c2ccccc2)c2ccccc2)c2ncn([C@@H]3O[C@H](CO)[C@@H](O)[C@H]3O)c2n1 [Example 4, N^6-(2,2-Diphenylethyl)-2-aminoadenosine]	275 nM	89 nM	0%	11%	22%	> 100 mg/kg	–
OC[C@H]1O[C@@H](n2cnc3c(NC(c4ccccc4)c4ccccc4)ncnc32)[C@H](O)[C@@H]1O [Example 5, N^6 -Diphenylmethyladenosine]	5650 nM	846 nM	–	–	–	> 100 mg/kg	–
OC[C@H]1O[C@@H](n2cnc3c(NCCCC(c4ccccc4)c4ccccc4)ncnc32)[C@H](O)[C@@H]1O [Example 6, N^6-(4,4-Diphenylbutyl)adenosine]	9520 nM	518 nM	–	–	–	> 100 mg/kg	–
OC[C@H]1O[C@@H](n2cnc3c(NCCCCC(c4ccccc4)c4ccccc4)ncnc32)[C@H](O)[C@@H]1O [Example 7, N^6-(5,5-Diphenylpentyl)adenosine]	3290 nM	147 nM	–	–	–	> 100 mg/kg	–
CC(CNc1ncnc2c1ncn2[C@@H]1O[C@H](CO)[C@@H](O)[C@H]1O)(c1ccccc1)c1ccccc1 [Example 8, N^6-(2,2-Diphenylpropyl)adenosine]	41 nM	66 nM	–	–	–	> 100 mg/kg	–
Cc1cccc(C(CNc2ncnc3c2ncn3[C@@H]2O[C@H](CO)[C@@H](O)[C@H]2O)c2ccccc2)c1 (stereo partly drawn) [Example 9, N^6-(2-(3-Methylphenyl)-2-phenylethyl)adenosine]	17 nM	13 nM	–	–	–	100 mg/kg	–
OC[C@H]1O[C@@H](n2cnc3c(NCC(c4ccccc4)c4ccc(F)cc4)ncnc32)[C@H](O)[C@@H]1O (stereo partly drawn) [Example 10, N^6-(2-(4-Fluorophenyl)-2-phenylethyl)adenosine]	71 nM	14 nM	–	–	–	> 100 mg/kg	–
OC[C@H]1O[C@@H](n2cnc3c(NCC(c4ccccc4)c4ccc(F)cc4)nc(Cl)nc32)[C@H](O)[C@@H]1O (stereo partly drawn) [Example 11, N^6-(2-(4-Fluorophenyl)-2-phenylethyl)-2-chloroadenosine]	210 nM	69 nM	–	–	–	> 100 mg/kg	–
Nc1nc(NCC(c2ccccc2)c2ccc(F)cc2)c2ncn([C@@H]3O[C@H](CO)[C@@H](O)[C@H]3O)c2n1 (stereo partly drawn) [Example 12, N^6-(2-(4-Fluorophenyl)-2-phenylethyl)-2-amino adenosine]	303 nM	94 nM	–	–	–	> 100 mg/kg	–
OC[C@H]1O[C@@H](n2cnc3c(NCC(c4ccc(F)cc4)c4ccc(F)cc4)ncnc32)[C@H](O)[C@@H]1O [Example 13, N^6-(2,2-Di-(4-fluorophenyl)ethyl)adenosine]	94 nM	16 nM	–	–	–	> 100 mg/kg	–
OC[C@H]1O[C@@H](n2cnc3c(NCC(c4ccccc4)c4cccc(Cl)c4)ncnc32)[C@H](O)[C@@H]1O (stereo partly drawn) [Example 14, N^6-(2-(3-Chlorophenyl)-2-phenylethyl)adenosine]	–	–	–	–	–	> 100 mg/kg	–
OC[C@H]1O[C@@H](n2cnc3c(NCC(c4ccccc4)c4ccc(Cl)cc4)ncnc32)[C@H](O)[C@@H]1O (stereo partly drawn) [Example 15, N^6-(2-(4-Chlorophenyl)-2-phenylethyl)adenosine]	90 nM	27 nM	–	–	–	> 100 mg/kg	–
Nc1nc(NCC(c2ccccc2)c2ccc(Cl)cc2)c2ncn([C@@H]3O[C@H](CO)[C@@H](O)[C@H]3O)c2n1 (stereo partly drawn) [Example 16]	319 nM	223 nM	–	–	–	> 100 mg/kg	–
OC[C@H]1O[C@@H](n2cnc3c(NCC(c4ccc(Cl)cc4)c4ccc(Cl)cc4)ncnc32)[C@H](O)[C@@H]1O [Example 17, N^6-(2,2-Di(4-chlorophenyl)ethyl)adenosine]	713 nM	512 nM	–	–	–	> 100 mg/kg	–
Nc1nc(NCC(c2ccc(Cl)cc2)c2ccc(Cl)cc2)c2ncn([C@@H]3O[C@H](CO)[C@@H](O)[C@H]3O)c2n1 [Example 18]	2120 nM	1920 nM	–	–	–	–	–
COc1ccc(C(CNc2ncnc3c2ncn3[C@@H]2O[C@H](CO)[C@@H](O)[C@H]2O)c2ccccc2)cc1 (stereo partly drawn) [Example 19, N^6-(2-(4-Methoxyphenyl)-2-phenylethyl)adenosine]	56 nM	21 nM	–	–	–	30 mg/kg	–
O=[N+]([O-])c1ccc(C(CNc2ncnc3c2ncn3[C@@H]2O[C@H](CO)[C@@H](O)[C@H]2O)c2ccc([N+](=O)[O-])cc2)cc1 [Example 20]	–	–	–	–	–	–	> 100 mg/kg
CC(CNc1nc(N)nc2c1ncn2[C@@H]1O[C@H](CO)[C@@H](O)[C@H]1O)(c1ccccc1)c1ccccc1 [Example 21, N^6-(2,2-Diphenylpropyl)-2-aminoadenosine]	470 nM	285 nM	–	–	–	> 100 mg/kg	–
OC[C@H]1O[C@@H](n2cnc3c(NCC(O)(c4ccccc4)c4ccccc4)ncnc32)[C@H](O)[C@@H]1O [Example 22, N^6-(2,2-Diphenyl-2-hydroxyethyl)adenosine]	94 nM	12 nM	–	–	–	100 mg/kg	–
O=P(O)(O)OC[C@H]1O[C@@H](n2cnc3c(NCC(c4ccccc4)c4ccccc4)ncnc32)[C@H](O)[C@@H]1O [Example 28, N^6-(2,2-Diphenylethyl)adenosine-5'-phosphate]	~20 nM	–	–	–	–	> 30 mg/kg	–
